According to article PMC7578299, “The antiviral effects of baloxavir marboxil against influenza A virus infection in ferrets” (Influenza and Other Respiratory Viruses, 2020):

Experiment: Metabolic stability in liver microsomes, monkey
Format: in vitro ADME
Conditions: monkey; for % Residual in liver microsome: 0.5 mg/mL, 2 μmol/L, 37°C, mean of duplicates; for % Residual in liver microsome Individual value: duplicates
Procedure: Liver microsomes were prepared from ferrets, rats, dogs, and monkeys, as previously described. ^28 Human liver microsomes were obtained from Sekisui‐XenoTech, LLC and pooled (n = 15). Metabolic stability of the compounds in liver microsomes was tested in duplicate. Oseltamivir and cefcapene pivoxil were used as reference compounds. Liver microsomes at 0.5 mg/mL concentration (final volume of 0.2 mL) were incubated in Tris‐HCl buffer (pH 7.4), containing 50 mmol/L Tris‐HCl, 150 mmol/L KCl, 10 mmol/L MgCl2. The hydrolysis reaction was initiated by applying the test compound solution (final concentration 2 μmol/L). After incubation for 10, 20, and 30 minutes at 37°C, the hydrolysis was terminated by the addition of twofold volume of ice‐cold acetonitrile/methanol (1:1, v/v). Samples were centrifuged at 3000 rpm for 10 minutes prior to LC‐MS/MS analysis of compounds in the supernatants.

COC(=O)OCOc1c2n(ccc1=O)N([C@@H]1c3ccccc3SCc3c1ccc(F)c3F)[C@@H]1COCCN1C2=O [BXM, Baloxavir marboxil]
0.0%: % Residual in liver microsome (10 min) | % Residual in liver microsome (20 min) | % Residual in liver microsome (30 min) | % Residual in liver microsome Individual value (10 minutes) | % Residual in liver microsome Individual value (20 minutes) | % Residual in liver microsome Individual value (30 minutes)
